Data from patent publication US20230365563A1, “QUINAZOLINE COMPOUND AND APPLICATION THEREOF” (SHANGHAI PHARMACEUTICALS HOLDING CO., LTD., priority 2020, published 2023).
Structures can show the parent of a compound that is named as a salt.

What was measured:
KRAS-G12D and SOS1 = biological target: T1, KRAS-G12D and SOS1 (Homo sapiens, UniProt P01116, G12D); assay: Inhibition of KRAS-G12D/SOS1 binding (Cisbio binding kit, 665/615 ratio), Effect Embodiment A; settings: read-out: GTP-KRAS-G12D:SOS1 IC50
T1 construct: purchased
Procedure, shortened: (§1)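 Test compounds were serially diluted 3-fold from the storage solution over 11 points and dispensed in duplicate wells at 1% final DMSO.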

KRAS_G12D and cRAF = biological target: T2, KRAS_G12D and cRAF (Homo sapiens, UniProt P01116, G12D); assay: Inhibition of KRAS_G12D/cRAF binding (Cisbio binding kit, 665/615 ratio), Effect Embodiment B; settings: read-out: GTP-KRAS-G12D:CRAF IC50
T2 construct: purchased
Procedure, shortened: as §1

KRAS_WT and SOS1 = biological target: T3, KRAS_WT and SOS1 (Homo sapiens, UniProt P01116); assay: Inhibition of KRAS_WT/SOS1 binding (Cisbio binding kit, 665/615 ratio), Effect Embodiment C; settings: read-out: GTP-KRAS-WT:SOS1 IC50
T3 construct: purchased
Procedure, shortened: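 Compounds tested as 3-fold, 11-point dilutions in duplicate at 1% DMSO final against the KRAS_WT/SOS1 binding system. IC50 derived by nonlinear regression fit.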

T1 sequence (P01116 1-188 isoform P01116-2 G12D): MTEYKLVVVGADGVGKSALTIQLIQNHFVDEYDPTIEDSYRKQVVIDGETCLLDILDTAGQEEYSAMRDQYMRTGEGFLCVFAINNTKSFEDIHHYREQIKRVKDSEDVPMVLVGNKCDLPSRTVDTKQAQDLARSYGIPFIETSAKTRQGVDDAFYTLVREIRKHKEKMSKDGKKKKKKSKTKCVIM
T2 sequence (P01116 1-188 isoform P01116-2 G12D): as above
T3 sequence (P01116 1-188 isoform P01116-2): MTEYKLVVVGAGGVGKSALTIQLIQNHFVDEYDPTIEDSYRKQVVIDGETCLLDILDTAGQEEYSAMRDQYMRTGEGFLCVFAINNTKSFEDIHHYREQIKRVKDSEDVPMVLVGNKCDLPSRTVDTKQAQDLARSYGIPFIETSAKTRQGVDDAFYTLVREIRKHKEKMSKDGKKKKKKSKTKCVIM

SMILES	IC50 (KRAS-G12D and SOS1) [nM]	IC50 (KRAS_G12D and cRAF) [nM]	IC50 (KRAS_WT and SOS1) [nM]
C[C@@H](COc1nc(N2CC3CCC(C2)N3)c2cc(Cl)c(-c3cc(O)cc4ccccc34)c(F)c2n1)CN1C[C@@H](C)OC[C@H]1C (single isomer, unassigned) [Compound 236, 4-((S or R)-4-((1R,5S)-3,8-diazacyclo[3.2.1]octan-3-yl)-6-chloro-2-((R)-3-((2R,5R)-2,5-dimethylmorpholinyl)-2-methylpropoxy)-8-fluoroquinazolin-7-yl)naphthalen-2-ol formate]	19.1	15	309
C[C@@H](COc1nc(N2CC3CCC(C2)N3)c2cc(Cl)c(-c3cc(O)cc4ccccc34)c(F)c2n1)CN1C[C@H](C)OC[C@H]1C (single isomer, unassigned) [Compound 237, 4-((S or R)-4-((1R,5S)-3,8-diazacyclo[3.2.1]octan-3-yl)-6-chloro-2-((R)-3-((2S,5R)-2,5-dimethylmorpholinyl)-2-methylpropoxy)-8-fluoroquinazolin-7-yl)naphthalen-2-ol formate]	19.5	18.6	569
Oc1cc(-c2c(Cl)cc3c(N4CC5CCC(C4)N5)nc(OCCN4C5CC6CC4CC(C5)O6)nc3c2F)c2ccccc2c1 (single isomer, unassigned) [Compound 238, (S or R)-4-(2-(2-((1R,3R,5R,7R)-2-oxa-6-azadamantan-6-yl)ethoxy)-4-((1R,5S)-3,8-diazabicyclo[3.2.1]octan-3-yl)-6-chloro-8-fluoroquinazolin-7-yl)naphthalen-2-ol formate]	43.3	155	3080
C[C@@H](COc1nc(N2CC3CCC(C2)N3)c2cc(Cl)c(-c3cc(O)cc4ccccc34)c(F)c2n1)CN1CCOC[C@H]1C (single isomer, unassigned) [Compound 239, 4-((S or R)-4-((1R,5S)-3,8-diazacyclo[3.2.1]octyl-3-yl)-6-chloro-8-fluoro-2-((R)-2-methyl-3-((R)-3-methylmorpholinyl)propoxy)quinazolin-7-yl)naphthalen-2-ol formate]	15.3	18.3	496
Oc1cc(-c2c(Cl)cc3c(N4CC5CCC(C4)N5)nc(OCCCN4CCOC5(CC5)C4)nc3c2F)c2ccccc2c1 (single isomer, unassigned) [Compound 240, 4-((S or R)-2-(3-(4-oxa-7-azaspiro[2.5]octan-7-yl)propoxy)-4-((1R,5S)-3,8-diazacyclo[3.2.1]octan-3-yl)-6-chloro-8-fluoroquinazolin-7-yl)naphthalen-2-ol formate]	39.1	164	2210
C[C@@H]1CN(CCCOc2nc(N3CC4CCC(C3)N4)c3cc(Cl)c(-c4cc(O)cc5ccccc45)c(F)c3n2)CCO1 (single isomer, unassigned) [Compound 241, 4-((S or R)-4-((1R,5S)-3,8-diazacyclo[3.2.1]octan-3-yl)-6-chloro-8-fluoro-2-(3-((R)-2-methylmorpholinyl)propoxy)quinazolin-7-yl)naphthalen-2-ol formate]	49.7	203	3600
C[C@@H](COc1nc(N2CC3CCC(C2)N3)c2cc(Cl)c(-c3cc(O)cc4ccccc34)c(F)c2n1)CN1CCO[C@H](C)C1 (single isomer, unassigned) [Compound 242, 4-((S or R)-4-((1R,5S)-3,8-diazacyclo[3.2.1]octan-3-yl)-6-chloro-8-fluoro-2-((R)-2-methyl-3-((R)-2-methylmorpholinyl)propoxy)quinazolin-7-yl)naphthalen-2-ol formate]	13.7	23.3	731
C[C@@H](COc1nc(N2CC3CCC(C2)N3)c2cc(Cl)c(-c3cc(O)cc4ccccc34)c(F)c2n1)CN1CCOC2(CC2)C1 (single isomer, unassigned) [Compound 243, 4-((S or R)-4-((1R,5S)-3,8-diazabicyclo[3.2.1]octan-3-yl)-6-chloro-8-fluoro-2-((R)-2-methyl-3-(4-oxa-7-azaspiro[2.5]octan-7-yl)propoxy)quinazolin-7-yl)naphthalen-2-ol formate]	19.2	37.5	1250
CC(C)N1CC2CCC(C1)N2CCCOc1nc(N2CC3CCC(C2)N3)c2cc(Cl)c(-c3cc(O)cc4ccccc34)c(F)c2n1 (single isomer, unassigned) [Compound 244, 4-((7S or 7R)-4-((1R,5S)-3,8-diazacyclo[3.2.1]octan-3-yl)-6-chloro-8-fluoro-2-(3-(3-isopropyl-3,8-diazacyclo[3.2.1]octan-8-yl)propoxy)quinazolin-7-yl)naphthalen-2-ol diformate]	48.5	260	3340
Oc1cc(-c2c(Cl)cc3c(N4CC5CCC(C4)N5)nc(OCCCN4CC5(COC5)C4)nc3c2F)c2ccccc2c1 (single isomer, unassigned) [Compound 245, 4-((S or R)-2-(3-(2-oxa-6-azaspiro[3.3]heptan-6-yl)propoxy)-4-((1R,5S)-3,8-diazacyclo[3.2.1]octan-3-yl)-6-chloro-8-fluoroquinazolin-7-yl)naphthalen-2-ol diformate]	27.4	110	1480
C[C@H]1CN(CCCOc2nc(N3CC4CCC(C3)N4)c3cc(Cl)c(-c4cc(O)cc5ccccc45)c(F)c3n2)CCO1 (single isomer, unassigned) [Compound 246, 4-((S or R)-4-((1R,5S)-3,8-diazacyclo[3.2.1]octan-3-yl)-6-chloro-8-fluoro-2-(3-((S)-2-methylmorpholinyl)propoxy)quinazolin-7-yl)naphthalen-2-ol formate]	37.4	218	3700
C[C@@H](COc1nc(N2CC3CCC(C2)N3)c2cc(Cl)c(-c3cc(O)cc4ccccc34)c(F)c2n1)CN1CCO[C@@H](C)C1 (single isomer, unassigned) [Compound 247, 4-((S or R)-4-((1R,5S)-3,8-diazacyclo[3.2.1]octan-3-yl)-6-chloro-8-fluoro-2-((R)-2-methyl-3-((S)-2-methylmorpholinyl)propoxy)quinazolin-7-yl)naphthalen-2-ol formate]	13.3	28.5	944
Oc1cc(-c2c(Cl)cc3c(N4CC5CCC(C4)N5)nc(OCCCN4C5CCC4COC5)nc3c2F)c2c(F)c(F)ccc2c1 (single isomer, unassigned) [Compound 248, (4S or 4R)-4-(2-(3-(3-oxa-8-azabicyclo[3.2.1]octan-8-yl)propoxy)-4-(1R,5S)-3,8-diazabicyclo[3.2.1]octan-3-yl)-6-chloro-8-fluoroquinazolin-7-yl)-5,6-difluronaphththalen-2-ol formate]	31.1	67.2	98.1
C=CCCOCCCN1CCC[C@H]1COc1nc(N2CC3CCC(C2)N3)c2cc(F)c(-c3cc(O)cc4ccc(F)c(CC)c34)c(F)c2n1 (single isomer, unassigned) [Compound 249, 4-((S or R)-4-((1R,5S)-3,8-diazacyclo[3.2.1]octan-3-yl)-2-((S)-1-(3-(but-3-en-1-oxy)propyl)pyrrolidin-2-yl)methoxy)-6,8-difluoroquinazolin-7-yl)-5-ethyl-6-fluoronaphthalen-2-ol dihydrochloride]	23.7	16.4	84.6
